Data on 1 substance can be found in US12037419B2 (The Feinstein Institutes for Medical Research, priority 2016, dated 2024).

One experiment deals with T1, sRAGE-C1q-HMGB1 complex.
T1 construct: soluble RAGE (sRAGE) was immobilized on the sensor chip; C1q purified from pooled normal human sera; purchased R&D Systems (hrRAGE); Complement Technology (C1q)
Nature of the experiment: RAGE-C1q-HMGB1 trimolecular complex formation (SPR and C1q-coated beads). The note with it: sRAGE immobilized, C1q 200 nM, HMGB1 500 nM, either order. The class given is binding, human. The protocol: The dissociation time was set for 1 minute.
Trimolecular complex assay: Biotinylated-C1q (20 μg/ml) was precoated to SpeedBeads™ (Streptavidin-conjugated microbeads, Thermo Scientific). Beads were saturated with HMGB1, then incubated with RAGE.

Experiment [1] concerns RAGE, LAIR-1, SHP-1, NF-κB signaling pathway. As to the kind of experiment: Immunoprecipitation, Western blot, phospho-immunoreceptor array and p65 nuclear translocation in monocytes. The class given is cell-based, human. The protocol:
(§1) Immunofluorescence Microscopy: In situ proximal ligation assay was performed according to manufacturer's protocol (Duolink, Sigma). Following stimulation, human monocytes were washed three times with ice-cold PBS and were fixed with 4% (wt/vol) PFA for 1 hour at room temperature, seeded (2×10^5 cells) on slides using cytospin (Shandon), permeablized with chilled MeOH for 4 min and with PBS/0.1% (vol/vol) Triton X-100 and blocked for 1 h at room temperature. Cells were then incubated overnight with a primary antibody pair directed to rabbit anti-RAGE (ab3611, Abcam) and to mouse anti-LAIR-1 (BD Bioscience), respectively. The cells were incubated with corresponding PLA probes conjugated to oligonucleotides (mouse MINUS and rabbit PLUS), then followed by ligation and rolling circle amplification in close proximity. Images were acquired using AxioVision software and a confocal microscope (Olympus). Quantification was performed using Zen2 (Zeiss). […] Cells were washed three times with cold-PBS and fixed with 4% PFA and stained with PECy5-anti-human CD14 antibody (BD biosciences) or propidium iodide (PI). […] PI or DAPI was used for nuclear staining. […] After washing, cells were stained with Alexa Fluor 594 anti-rabbit IgG (Life Technologies), and mounted DAPI-containing medium. Images were acquired using an AxioImage Z1 (Zeiss) apotome enabled (Zeiss) Fluorescent-intensity analysis of the images was performed using Zen2 (Zeiss).
Immunoprecipitation and Western blot. Total protein extracts were prepared as described (22). Monocytes (2-5×10^6 cells/ml) were washed in ice-cold PBS and lysed in 1×RIPA buffer containing complete protease inhibitor mixture (Roche) and phosphatase inhibitor (Pierce) for 1 h on ice. For immunoprecipitation, anti-LAIR-1 antibody (BD Bioscience) or anti-RAGE antibody (Abcam) was incubated with the lysate overnight at 4° C. prior to being incubated with protein G-dynabeads (Life Technologies). Proteins were then separated by SDS-PAGE, transferred to nitrocellulose or PVDF membranes, and immunoblotted with appropriate antibodies. Bands were detected using the ECL reagent (Thermo Scientific) or using the Odyssey Infrared Imaging system (LI-COR) to detect secondary antibodies conjugated with Infrared 680 or 800.
Phospho-immunoreceptor array: Tyrosine phosphorylated LAIR-1 was determined by human phosphoimmunoreceptor array (Proteome Profiler Array; R&D systems) according to the manufacturer's protocol and as described (22). Phosphorylation levels of individual analytes were determined by average pixel density of duplicate spots; values were obtained after subtraction of background and were normalized to positive control spots.

For experiment [2], the system named is human monocytes. As to the kind of experiment: CpG- or LPS-induced cytokine transcription in monocytes. The class given is cell-based. On the procedure: Monocyte isolation and stimulation: Human PBMCs were obtained following institutional guidelines of the Feinstein Institute for Medical Research (Feinstein) and isolated from blood of healthy donors by density centrifugation (New York Blood Bank). Monocytes were negatively enriched using a human monocyte enrichment kit (Stem Cell Technology). Purity of monocytes (≥90% CD11b+CD14+LAIR-1+) was determined by flow cytometry. […] Splenic murine monocytes from wild type mice, RAGE deficient or LAIR-1 conditional knockout mice were isolated using EasySep mouse monocyte enrichment kit (Stem Cell Technology). C57BL/6 mice, Lysozyme2-Cre transgenic mice were purchased from Jackson Laboratory. Myeloid specific LAIR-1 conditional knockout mice (Lysozyme2-Cre×LAIR fl/fl) were bred and maintained in our facility (Feinstein) under specific pathogen-free conditions. RAGE deficient mice (Department of Medicine, Karolinska Institute Stockholm, Sweden) were maintained at Feinstein. Eight-to ten weeks old male mice were used for experiments. […]
RT-PCR analysis and primers: Total RNA was extracted from cells (1-2×10^6 cells per sample) with an RNeasy kit (Qiagen, Venlo, Limburg, Netherlands) and cDNA was generated using an iScript cDNA synthesis kit (Bio-Rad laboratories). […] The relative induction was calculated by 2-ΔΔCt.

For experiment [3], the system named is human monocytes. Nature of the experiment: SeaHorse cellular flux assay (OCR, ECAR). The class given is cell-based. As to conditions: C1q 25 μg ml-1 together with HMGB1 3 μg/ml, 24 h. The protocol: Cell metabolism analysis using SeaHorse Cellular Flux assay. […] One hour prior to measurement, culture medium was exchanged for assay medium (unbuffered DMEM (Sigma), supplemented with 10 mM Glucose, 1 mM Pyruvate and 2 mM Glutamine for mitochondrial assays, or with 2 mM Glutamine alone for glycolytic assays. Reagents were injected during the measurement to achieve final concentrations of oligomycin (1 μM), carbonyl cyanide p-(trifluoromethoxy) phenylhydrazone (FCCP) ([…]), Rotenone/antimycin A (0.5 μM). Glucose (10 mM), and 2-Deoxy-D glucose (50 mM). Oxygen consumption rate (OCR) and Extracellular acidification rate (ECAR) values were measured using a SeaHorse XfP instrument (SeaHorse bioscience). Measured values were normalized to the number of live cells present in each well as determined by a trypan blue staining by the end of each run. For OCR/ECAR ratio calculations, an average of the last two basal readings was used for both OCR and ECAR.

In experiment [4] the test system is human monocytes. As to the kind of experiment: Internalization of FITC-labeled HMGB1 or CpG by monocytes (immunofluorescence microscopy). The class given is cell-based. On the procedure: as §1, with “Images were acquired using an AxioImage Z1 (Zeiss) apotome enabled (Zeiss) Fluorescent-intensity analysis of the images was performed using Zen2 (Zeiss).” left out

T1 sequence (Q15109 23-342 limits assumed): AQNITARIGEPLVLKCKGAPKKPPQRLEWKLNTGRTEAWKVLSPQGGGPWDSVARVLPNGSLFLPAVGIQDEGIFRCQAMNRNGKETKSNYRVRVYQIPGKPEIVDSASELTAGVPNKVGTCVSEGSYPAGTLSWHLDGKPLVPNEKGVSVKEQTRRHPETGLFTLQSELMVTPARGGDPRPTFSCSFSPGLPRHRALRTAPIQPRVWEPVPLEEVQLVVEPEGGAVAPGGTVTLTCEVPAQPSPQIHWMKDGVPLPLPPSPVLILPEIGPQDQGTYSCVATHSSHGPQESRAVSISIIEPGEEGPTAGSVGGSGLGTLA
T1 sequence (P09429 whole entry, further chain): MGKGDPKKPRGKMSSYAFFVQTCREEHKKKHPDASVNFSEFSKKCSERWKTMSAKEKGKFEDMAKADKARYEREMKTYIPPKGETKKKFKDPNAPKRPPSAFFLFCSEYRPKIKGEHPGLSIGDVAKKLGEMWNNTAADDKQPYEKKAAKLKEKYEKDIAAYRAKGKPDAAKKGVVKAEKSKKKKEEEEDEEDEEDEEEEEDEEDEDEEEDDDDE
T1 sequence (P02745 23-245, further chain): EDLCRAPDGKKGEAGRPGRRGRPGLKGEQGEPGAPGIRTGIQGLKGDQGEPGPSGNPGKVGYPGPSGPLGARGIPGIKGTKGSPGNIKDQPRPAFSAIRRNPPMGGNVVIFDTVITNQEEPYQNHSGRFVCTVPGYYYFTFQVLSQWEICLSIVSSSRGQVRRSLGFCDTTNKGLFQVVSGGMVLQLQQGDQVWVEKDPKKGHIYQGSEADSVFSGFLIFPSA
T1 sequence (P02746 28-253, further chain): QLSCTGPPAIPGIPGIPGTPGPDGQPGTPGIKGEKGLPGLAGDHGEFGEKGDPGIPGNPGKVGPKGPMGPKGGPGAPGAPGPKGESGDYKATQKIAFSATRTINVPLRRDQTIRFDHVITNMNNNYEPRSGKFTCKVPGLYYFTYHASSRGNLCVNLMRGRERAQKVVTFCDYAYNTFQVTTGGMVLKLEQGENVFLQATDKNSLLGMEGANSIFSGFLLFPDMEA
T1 sequence (P02747 29-245, further chain): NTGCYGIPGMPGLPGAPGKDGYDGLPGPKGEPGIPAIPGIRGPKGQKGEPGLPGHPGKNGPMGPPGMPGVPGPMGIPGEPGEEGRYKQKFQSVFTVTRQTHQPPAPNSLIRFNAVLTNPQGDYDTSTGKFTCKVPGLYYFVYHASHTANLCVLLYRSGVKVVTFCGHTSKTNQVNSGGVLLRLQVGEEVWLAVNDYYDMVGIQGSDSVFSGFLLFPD

Turning to “C1q: C1q purified from pooled normal human sera, obtained from Complement Technology”, the “trimolecular complex formation with HMGB1 and sRAGE” value in the experiment with sRAGE-C1q-HMGB1 complex is “formed a trimolecular complex”. The “phosphorylation of LAIR-1” value in experiment [1] is on record as “induces phosphorylation of LAIR-1”. In addition, the “HMGB1-induced activation and nuclear translocation of NF-κB” value in experiment [1] (P-IKKα, p65, 1 h) was “inhibited the downstream activation and nuclear translocation of NF-κB”. Further, the “recruitment of SHP-1 to LAIR-1” value in experiment [1] (both HMGB1 and C1q present) is listed as “more SHP-1 is recruited to LAIR-1”. Moreover, in experiment [1] (in the presence of C1q), the “HMGB1-induced phosphorylation of RAGE” value is “diminished”. Besides, in the experiment on human monocytes [2] (CpG 2216), the “CpG-mediated induction of pro-inflammatory cytokines and IFN inducible genes” value is reported as “inhibits CpG-mediated induction of pro-inflammatory cytokines”. Moreover, the LPS-induced cytokine transcription result with human monocytes [2] (LPS) is “no effect on LPS-induced cytokine transcription”. Moreover, in the experiment with human monocytes [3], the “HMGB1-induced alteration in cellular metabolism” value was “prevented the alteration in cellular metabolism”. The “internalization of FITC-labeled CpG oligonucleotides” value in the experiment on human monocytes [4] (15 min) is recorded as “significantly reduced cellular internalization”. Further, the “cytosolic FITC-HMGB1 (internalization)” value in the experiment with human monocytes [4] (FITC-HMGB1 3 μg/ml, C1q 25 μg ml-1, 15 min, 37° C.) was “significantly decreased”.
